Here are results for one compound from ChEMBL document CHEMBL1255439 (2010).

The subject of assay [1] is Burkholderia pseudomallei. Put plainly: Antibacterial activity against Burkholderia pseudomallei 1026b infected in BALB/c mouse assessed as decrease in bacterial count in spleen at 25 mg/kg, ip administered 6 hrs postinfection at 12 hrs interval for 3 days measured on day 65 in presence of murine recombinant IFN-gamma. It is filed as functional, organism-based. The arrangement: dose 25 mg/kg.

Assay [2] has as its system Burkholderia pseudomallei. Put plainly: Antibacterial activity against Burkholderia pseudomallei 1026b infected in BALB/c mouse assessed as increase in survival rate at 25 mg/kg, ip administered 6 hrs postinfection at 12 hrs interval for 3 days measured on day 60 in presence of murine recombinant IFN-gamma. Details: dose 25 mg/kg. It counts as functional, organism-based.

Assay [3] relates to Burkholderia pseudomallei. Put plainly: Antibacterial activity against Burkholderia pseudomallei 1026b infected in BALB/c mouse assessed as survival rate at 25 mg/kg, ip administered 6 hrs postinfection at 12 hrs interval for 3 days measured on day 20. It counts as functional. The following applies: route intraperitoneal.
The test system of assay [4] is Burkholderia pseudomallei. As to the kind of experiment: Antibacterial activity against Burkholderia pseudomallei 1026b infected in mouse AMJ.2 cells assessed as intracellular bacterial count at 10 ug/ml measured on 24 hrs postinfection by serial dilution plating technique (reference value: 2 X 10^4 CFU/ml). It is filed as functional.
Assay [5] relates to Burkholderia pseudomallei. As to the kind of experiment: Antibacterial activity against Burkholderia pseudomallei 1026b infected in BALB/c mouse assessed as increase survival rate at 25 mg/kg, ip administered 6 hrs postinfection at 12 hrs interval for 3 days measured on day 20. It is filed as functional, organism-based. Details: dose 25 mg/kg.
Assay [6] has as its system Burkholderia pseudomallei. As to the kind of experiment: Antibacterial activity against Burkholderia pseudomallei 1026b infected in mouse AMJ.2 cells assessed as decrease in intracellular bacterial growth at 10 ug/ml after 24 hrs by serial dilution plating technique in presence of 1 U/ml murine recombinant IFN-gamma. It is filed as functional, organism-based.
In assay [7] the test system is Burkholderia pseudomallei. Put plainly: Antibacterial activity against Burkholderia pseudomallei 1026b infected in mouse AMJ.2 cells assessed as decrease in intracellular bacterial growth at 1 ug/ml after 24 hrs by serial dilution plating technique in presence of 100 U/ml murine recombinant IFN-gamma. It is filed as functional, organism-based.
For assay [8], the system named is Burkholderia pseudomallei. As to the kind of experiment: Antibacterial activity against Burkholderia pseudomallei 1026b infected in BALB/c mouse assessed as protection against bacterial infection at 25 mg/kg, ip administered as single dose 6 hrs postinfection. It counts as functional. The following applies: route intraperitoneal.
Assay [9] deals with Burkholderia pseudomallei. Put plainly: Antibacterial activity against Burkholderia pseudomallei 1026b infected in mouse AMJ.2 cells assessed as inhibition of bacterial replication at <= 10 ug/ml after 24 hrs by serial dilution plating technique. It is filed as functional, organism-based.

The source made the active and inactive calls. No cut-off for these calls is given here.

Take `CC(C)(O/N=C(\C(=O)N[C@@H]1C(=O)N2C(C(=O)[O-])=C(C[n+]3ccccc3)CS[C@H]12)c1csc(N)n1)C(=O)O` [CEFTAZIDIME]: the inhibition entry in [1], in [6] and in assay [7] was “Active” in each case. Moreover, in [2], the outcome was Active. For the same compound, the Activity in assay [3] is recorded as 10%; in [8], 20%. The CFU in [4] is listed as >1 ×10⁶ /ml. Moreover, the outcome in [5] was inactive. Also, in assay [9], the inhibition entry is “inactive”.
